Results from patent publication US9145391B2, “Bipyridylaminopyridines as Syk inhibitors” (Merck Sharp & Dohme Corp., priority 2011, dated 2015).

The compounds below were run against recombinant human GST-Syk (Homo sapiens (Human), UniProt P43405) (assay: Homogeneous Time-Resolved Fluorescence (HTRF) assay for the recombinant human Syk enzyme). Settings: recombinant human GST-Syk 5 pM, ATP 25 μM, read-out: rhSyk IC50.
Type: biochemical
Experimental: Syk inhibition may be determined using the following assay protocol: Homogeneous Time-Resolved Fluorescence (HTRF) Assay for the Recombinant Human Syk Enzyme: A recombinant GST-hSyk fusion protein was used to measure potency of compounds to inhibit human Syk activity. […] To initiate the reaction the biotinylated substrate peptide (250 nM final concentration) that contains the phosphorylation site for Syk was added with magnesium (5 mM final concentration) and ATP (25 μM final concentration). […] Final volume of the quenching solution was 10 μL.

Structure (SMILES) | IC50 [nM]
COC(=O)C1CCC(O)(c2ccc(-c3cc(C)cc(Nc4cc(C(F)(F)F)ccn4)n3)cn2)CC1(C)C (single isomer, unassigned) [Example 1-6] | 405
COC(=O)C1CCC(O)(c2ccc(-c3cc(C)cc(Nc4cc(C(F)(F)F)ccn4)n3)cn2)CC1(C)C (single isomer, unassigned) [Example 1-7] | 245
COC(=O)C1CCC(O)(c2ccc(-c3cc(C)cc(Nc4cc(C(F)(F)F)ccn4)n3)cn2)CC1(C)C (single isomer, unassigned) [Example 1-9] | 100
Cc1cc(Nc2cc(C(F)(F)F)ccn2)nc(-c2ccc([C@]3(O)CC[C@H](C(N)=O)C(C)(C)C3)nc2)c1 (single isomer, unassigned) [Example 8, (1S,4S or 1R,4R)-4-Hydroxy-2,2-dimethyl-4-(4-methyl-6-{[4-(trifluoromethyl)pyridin-2-yl]amino}-2,3′-bipyridin-6′-yl)cyclohexanecarboxamide] | 23
COC(=O)[C@H]1CC[C@H](C(C)(O)c2ccc(-c3cc(C)cc(Nc4cc(C(F)F)ccn4)n3)cn2)CC1 (single isomer, unassigned) [Example 11, Methyl trans-4-[(1R or 1S)-(6-{[4-(difluoromethyl)pyridin-2-yl]amino}-4-methyl-2,3′-bipyridin-6′-yl)-1-hydroxyethyl]cyclohexanecarboxylate] | 9
Cc1cc(Nc2cc(C(F)F)ccn2)nc(-c2ccc(C(C)(O)[C@H]3CC[C@H](C(=O)OCCO)CC3)nc2)c1 (single isomer, unassigned) [Example 18, 2-Hydroxyethyl trans-4-[(1R or 1S)-1-(6-{[4-(difluoromethyl)pyridin-2-yl]amino}-4-methyl-2,3′-bipyridin-6′-yl)-1-hydroxyethyl]cyclohexanecarboxylate] | 3.4
Cc1cc(Nc2cc(C(F)F)ccn2)nc(-c2ccc(C(C)(O)[C@H]3CC[C@H](C(=O)OCc4ccccc4)CC3)nc2)c1 (single isomer, unassigned) [Example 19-1, benzyl trans-4-[(1R or 1S)-1-(6-{[4-(difluoromethyl)pyridin-2-yl]amino}-4-methyl-2,3′-bipyridin-6′-yl)-1-hydroxyethyl] cyclohexanecarboxylate] | 35
CCCOC(=O)[C@H]1CC[C@H](C(C)(O)c2ccc(-c3cc(C)cc(Nc4cc(C(F)F)ccn4)n3)cn2)CC1 (single isomer, unassigned) [Example 19-2, propyl trans-4-[(1R or 1S)-1-(6-{[4-(difluoromethyl)pyridin-2-yl]amino}-4-methyl-2,3′-bipyridin-6′-yl)-1-hydroxyethyl] cyclohexanecarboxylate] | 32
Cc1cc(Nc2cc(C(F)F)ccn2)nc(-c2ccc(C(C)(O)[C@H]3CC[C@H](C(=O)OC(C)C)CC3)nc2)c1 (single isomer, unassigned) [Example 19-3, propan-2-yl trans-4-[(1R or 1S)-1-(6-{[4-(difluoromethyl)pyridin-2-yl]amino}-4-methyl-2,3′-bipyridin-6′-yl)-1-hydroxyethyl] cyclohexanecarboxylate] | 50
CCCCOC(=O)[C@H]1CC[C@H](C(C)(O)c2ccc(-c3cc(C)cc(Nc4cc(C(F)F)ccn4)n3)cn2)CC1 (single isomer, unassigned) [Example 19-4, butyl trans-4-[(1R or 1S)-1-(6-{[4-(difluoromethyl)pyridin-2-yl]amino}-4-methyl-2,3′-bipyridin-6′-yl)-1-hydroxyethyl] cyclohexanecarboxylate] | 65
CCC(C)OC(=O)[C@H]1CC[C@H](C(C)(O)c2ccc(-c3cc(C)cc(Nc4cc(C(F)F)ccn4)n3)cn2)CC1 (single isomer, unassigned) [Example 19-5, butan-2-yl trans-4-[(1R or 1S)-1-(6-{[4-(difluoromethyl)pyridin-2-yl]amino}-4-methyl-2,3′-bipyridin-6′-yl)-1-hydroxyethyl] cyclohexanecarboxylate] | 7
Cc1cc(Nc2cc(C(F)F)ccn2)nc(-c2ccc(C(C)(O)[C@H]3CC[C@H](C(=O)OCC(C)C)CC3)nc2)c1 (single isomer, unassigned) [Example 19-6, 2-methylpropyl trans-4-[(1R or 1S)-1-(6-{[4-(difluoromethyl)pyridin-2-yl]amino}-4-methyl-2,3′-bipyridin-6′-yl)-1-hydroxyethyl] cyclohexanecarboxylate] | 74
CCCCCOC(=O)[C@H]1CC[C@H](C(C)(O)c2ccc(-c3cc(C)cc(Nc4cc(C(F)F)ccn4)n3)cn2)CC1 (single isomer, unassigned) [Example 19-7, pentyl trans-4-[(1R or 1S)-1-(6-{[4-(difluoromethyl)pyridin-2-yl]amino}-4-methyl-2,3′-bipyridin-6′-yl)-1-hydroxyethyl] cyclohexanecarboxylate] | 100
Cc1cc(Nc2cc(C(F)F)ccn2)nc(-c2ccc(C(C)(O)[C@H]3CC[C@H](C(=O)OCC(C)(C)C)CC3)nc2)c1 (single isomer, unassigned) [Example 19-8, 2,2-dimethylpropyl trans-4-[(1R or 1S)-1-(6-{[4-(difluoromethyl)pyridin-2-yl]amino}-4-methyl-2,3′-bipyridin-6′-yl)-1-hydroxyethyl] cyclohexanecarboxylate] | 150

Now those with a lower IC50, led by results:

IC50 [nM] | Structure (SMILES)
< 0.5 | Cc1cc(Nc2cc(C(F)(F)F)ccn2)nc(-c2ccc(C(C)(O)[C@H]3CC[C@H](C(=O)O)CC3)nc2)c1 (single isomer, unassigned) [Example 1, trans-4-((1R or 1S)-1-Hydroxy-1-(4-methyl-6-(4-(trifluoromethyl)pyridin-2-ylamino)-2,3′-bipyridin-6′-yl)ethyl)cyclohexanecarboxylic acid]
< 0.5 | Cc1cc(Nc2cc(C(F)(F)F)ccn2)nc(-c2ccc(NC3CCC(C(=O)O)C(C)C3)nc2)c1 (single isomer, unassigned) [Example 3-2]
1 | Cc1cc(Nc2cc(C(F)(F)F)ccn2)nc(-c2ccc(NC3CCC(C(=O)O)C(C)C3)nc2)c1 (single isomer, unassigned) [Example 3-3]
< 0.5 | Cc1cc(Nc2cc(C(F)(F)F)ccn2)nc(-c2ccc(NC3CCC(C(=O)O)C(C)(C)C3)nc2)c1 (single isomer, unassigned) [Example 3-4]
2 | Cc1cc(Nc2cc(C(F)(F)F)ccn2)nc(-c2ccc(NC3CCC(C(=O)O)C(C)(C)C3)nc2)c1 (single isomer, unassigned) [Example 3-5]
< 0.5 | Cc1cc(Nc2cc(C(F)F)ccn2)nc(-c2ccc(C(C)(O)[C@H]3CC[C@H](C(=O)O)CC3)nc2)c1 (single isomer, unassigned) [Example 12, trans-4-[(1R or 1S)-(6-{[4-(Difluoromethyl)pyridin-2-yl]amino}-4-methyl-2,3′-bipyridin-6′-yl)-1-hydroxyethyl]cyclohexanecarboxylic acid]
1 | Cc1cc(Nc2cc(C(F)F)ccn2)nc(-c2ccc(C(C)(O)C3CCC(C(=O)O)CC3)nc2)c1 (single isomer, unassigned) [Example 12-1, trans-4-[(1R or 1S)-(6-{[4-(difluoromethyl)pyridin-2-yl]amino}-4-methyl-2,3′-bipyridin-6′-yl)-1-hydroxyethyl]cyclohexanecarboxylic acid]
< 0.5 | Cc1cc(Nc2cc(C(F)F)ccn2)nc(-c2ccc(C(C)(O)[C@H]3CC[C@@H](C(=O)O)CC3)nc2)c1 (single isomer, unassigned) [Example 12-2, cis-4-[(1R or 1S)-(6-{[4-(difluoromethyl)pyridin-2-yl]amino}-4-methyl-2,3′-bipyridin-6′-yl)-1-hydroxyethyl]cyclohexanecarboxylic acid]
1 | Cc1cc(Nc2cc(C(F)F)ccn2)nc(-c2ccc(C(C)(O)[C@H]3CC[C@@H](C(=O)O)CC3)nc2)c1 (single isomer, unassigned) [Example 12-3, cis-4-[(1R or 1S)-(6-{[4-(difluoromethyl)pyridin-2-yl]amino}-4-methyl-2,3′-bipyridin-6′-yl)-1-hydroxyethyl]cyclohexanecarboxylic acid]
< 0.5 | Cc1cc(Nc2cc(C(F)F)ccn2)nc(-c2ccc(C(C)(F)[C@H]3CC[C@H](C(=O)O)CC3)nc2)c1 (single isomer, unassigned) [Example 13, trans-4-(1R or 1S)-(6-(4-(Difluoromethyl)pyridin-2-ylamino)-4-methyl-2,3′-bipyridin-6′-yl)-1-fluoroethyl)cyclohexanecarboxylic acid]
< 0.5 | Cc1cc(Nc2cc(C(F)(F)F)ccn2)nc(-c2ccc(C(C)[C@H]3CC[C@H](C(=O)O)CC3)nc2)c1 (single isomer, unassigned) [Example 14, trans-4-[(1R or 1S)-(4-Methyl-6-{[4-(trifluoromethyl)pyridin-2-yl]amino}-2,3′-bipyridin-6′-yl)ethyl]cyclohexanecarboxylic acid]
1 | Cc1cc(Nc2cc(C(F)F)ccn2)nc(-c2ccc(C(C)(O)[C@H]3CC[C@H](C(=O)O)CC3)nc2)c1Br (single isomer, unassigned) [Example 15, trans-4-((1R or 1S)-(3-Bromo-6-(4-(difluoromethyl)pyridin-2-ylamino)-4-methyl-2,3′-bipyridin-6′-yl)-1-hydroxyethyl)cyclohexanecarboxylic acid]
< 0.5 | Cc1cc(Nc2cc(C(F)F)ccn2)nc(-c2ccc(C(C)(O)[C@H]3CC[C@H](C(=O)O)CC3)nc2)c1 (single isomer, unassigned) [Example 16, Sodium trans-4-[(1R or 1S)-1-(6-{[4-(difluoromethyl)pyridin-2-yl]amino}-4-methyl-2,3′-bipyridin-6′-yl)-1-hydroxyethyl]cyclohexanecarboxylate]
